# Entries after “also recorded” stand apart in the source; their conditions may differ. Ends that are not written are not given here. Peptide text beside a SMILES is read from it. * marks the point of attachment. Cbz = O=C(OCc1ccccc1)*; CH2F = FC*
# Experiments:
# APA (SK-RC-49/APA cells) [1] = target: T1, APA (SK-RC-49/APA cells) (Homo sapiens, UniProt Q07075); assay: Cell panning of CX3CX3CX3C phage library on SK-RC-49/APA cells (insert frequency); assay type: cell-based; conditions: for Round 2 (%): share of 18 randomly selected phage inserts
# T1 construct: The renal carcinoma cell line SK-RC-49 was transfected with an expression vector encoding full-length APA cDNA; expressed in transfected cells; host or cells: SK-RC-49 renal carcinoma cells, stably transfected (G418)
# Method: A CX3CX3CX3C(C, cysteine; X, any amino acid) library was prepared (Rajotte et al., 1998). […] Cells were detached by incubation with 2.5 mM EDTA in PBS, washed once in binding medium (DMEM high glucose supplemented with 20 mM HEPES and 2% FCS), and resuspended in the same medium at a concentration of 2×10^6 cells/ml. 10^10 TU of phage were added to 500 μl of the cell suspension, and the mixture was incubated overnight (first round) or for 2 h (successive rounds) at 4° C. with gentle rotation. Cells were washed five times in binding medium at room temperature and resuspended in 100 μl of the same medium. Phage were rescued by adding 1 ml of exponentially growing K91Kan Escherichia coli bacteria and incubating the mixture for 1 h at room temperature. Bacteria were diluted in 10 ml of LB medium supplemented with 0.2 μg/ml tetracycline and incubated for another 20 min at room temperature. Serial dilutions were plated on LB plates containing 40 μg/ml tetracycline, and plates were incubated at 37° C. overnight before colonies were counted.
# The CX3CX3CX3C phage library (10^10 transducing units [TU]) was preadsorbed on parental SK-RC-49 cells to decrease nonspecific binding. […] SK-RC-49/APA-bound phage were amplified and used for two consecutive rounds of selection.
# HUVEC = assay: Apoptosis by chromatin fragmentation (agarose gel) in HUVEC; assay type: cell-based, human
# Method: 10^6 HUVEC were treated with 15 μM of VISY antennapedia (penetratin) chimera or 15 μM of antennapedia peptide (pentratin) alone for 2-4 hours and chromatin fragmentation was analyzed by electrophoresis in an agarose gel.
# mouse placenta = assay: In vivo biopanning for placenta homing phage with post-clearing (clone frequency per round); conditions: for frequency of phage clone in round III: round III of in vivo biopanning in pregnant mice; for frequency of phage clone in round IV: post-clearing in non-pregnant mouse
# Method: Peptides homing to the mouse placenta were identified by a post-clearing protocol using a phage display library. A first round of biopanning was performed on pregnant mice. Samples of placenta were removed and phage rescued according to the standard protocols described above, with one modification. In the typical bipanning protocol, thousands of phage may be recovered from a single organ, tissue or cell type. Typically, between 200 and 300 individual colonies were selected from plated phage and these were amplified and pooled to form the phage display library for the second or third rounds of biopanning. In this example, all phage rescued from the first round of biopanning were amplified in bulk on solid medium and then pooled to form the phage display library for the second round of biopanning. That is, there was no restriction of the rescued phage from the first round of biopanning. This in vivo biopanning without restriction was performed for three rounds (rounds I-III), then a post-clearing procedure was used.
# In the post-clearing protocol (round IV), phage were administered to a non-pregnant mouse. Phage that bound to tissues other than placenta were absorbed from the circulation. Remaining phage were recovered from the plasma of the non-pregnant mouse. This protocol was designed to isolate phage that bound to placenta but not to other mouse organs, tissues or cell types. The following placenta targeting peptides were identified, along with their frequencies. A search of the GenBank database disclosed that none of the SEQ ID NO's listed below was 100% homologous with any known peptide sequence.
# placenta [2] = assay: Validation of placenta homing phage: recovery from placenta of pregnant mice; assay type: in vivo, mouse; conditions: FIG. 1
# Source text: FIG. 1. Validation of placenta homing phage. […] The placenta homing phage clones were: […] NO:43). The placenta homing peptides were validated in vivo by injection into pregnant mice and recovery from the placenta. […] The phage clones are identified as: […] NO:43).
# placenta [3] = assay: Effect of placental targeting peptide conjugates on fetal development in pregnant mice; assay type: in vivo, mouse; conditions: for effect on pregnancy: FITC conjugated, lower dosages (450 μg total); for effect on fetal development: protein and phage conjugated, higher dosages (800 to 1000 μg protein or 4.5×10^10 phage)
# Source text: The CARAC peptide (SEQ ID NO:46), an adipose targeting peptide (FE, TREVHRS, SEQ ID NO:47) or fd-tet phage were used as non-placental targeting controls.
# adipose tissue = assay: Validation of adipose homing phage by in vivo homing; design: species or system mouse; conditions: FIG. 2
# Method: FIG. 2. Validation of adipose homing peptides. Phage bearing targeting peptides identified in Example 4 were injected into pregnant mice and their recovery from adipose tissue was compared to control fd-tet phage without targeting sequences.
# The fat homing clones selected were: FA—KGGRAKD (SEQ ID NO:53), FC—RGEVLWS (SEQ ID NO:54), FE—TREVHRS (SEQ ID NO:47) and FX—VMGSVTG (SEQ ID NO:52).
# APA (SK-RC-49/APA cells) [4] = target: T1, APA (SK-RC-49/APA cells); assay: Phage binding specificity assay on SK-RC-49/APA cells; assay type: cell-based
# Method: The cell binding assay was performed with an input of 10^9 TU as described for the cell panning. The specificity was confirmed by adding […] (SEQ ID NO:123) peptide to the binding medium in increasing concentrations. For phage binding on immunocaptured APA, wells were blocked for 1 h at room temperature with PBS/3% BSA and incubated with 10^9 TU for 1 h at room temperature in 50 μl PBS/3% BSA. After eight washes in PBS/1% BSA/0.01% Tween-20 and two washes in PBS, phage were rescued by adding 200 μl of exponentially growing K91Kan E. coli. Each experiment was repeated at least three times.
# [5] = test system: MDA-MB-435-derived tumor xenografts; assay: In vivo tumor homing of APA-binding phage; design: species or system mouse; conditions: 10^9 TU iv, 5 min circulation, FIG. 22
# Method: MDA-MB-435-derived tumor xenografts were established in female nude mice 2 months old (Jackson Labs, Bar Harbor, Me.). Mice were anesthetized with Avertin and injected intravenously through the tail vein with 10^9 TU of the phage in a 200 μl volume of DMEM. The phage were allowed to circulate for 5 min, and the animals were perfused through the heart with 5 ml of DMEM. The tumor and brain were dissected from each mouse, weighed, and equal amounts of tissue were homogenized. The tissue homogenates were washed three times with ice-cold DMEM containing a proteinase inhibitor cocktail and 0.1% BSA. Bound phage were rescued and counted as described for cell panning. Fd-tet phage was injected at the same input as a control. The experiment was repeated twice. In parallel, part of the same tissue samples were fixed in Bouin solution, and imbedded in paraffin for preparation of tissue sections. An antibody to M-13 phage (Amersham-Pharmacia) was used for the staining.
# GST-β5 integrin = target: T2, GST-β5 integrin (Homo sapiens, UniProt P18084); assay: Annexin V binding to GST-β5 cytoplasmic domain (ELISA), competition with VISY peptide; conditions: FIG. 20A
# T2 construct: Plates were coated with GST fusion proteins of the cytoplasmic domains of various integrins and Annexin V was added to the plates
# T2 sequence (P18084 743-799 limits assumed): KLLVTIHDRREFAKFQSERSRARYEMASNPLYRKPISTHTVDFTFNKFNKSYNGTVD
# Method: Competitive binding assays were performed to examine the binding of Annexin V to β5 integrin and the effect of the VISY peptide. Plates were coated with GST fusion proteins of the cytoplasmic domains of various integrins and Annexin V was added to the plates. Binding of Annexin V was determined using anti-Annexin V antibodies. […] Calcium was used because Annexin V activity has been reported to be modulated by calcium. Binding of Annexin V to GST-β5 was blocked by addition of the VISY peptide (FIG. 20A).
# A reciprocal study was performed, using Annexin V to coat plates and adding GST fusion proteins of integrin cytoplasmic domains. Binding was assessed using anti-GST fusion protein antibodies. […] In some studies, calcium ion appeared to interfere with the binding interaction between GST-β5 and Annexin V, with decreased binding observed in the presence of calcium (not shown).
# [6] = FITC conjugates-I, 1 mouse iv (predominantly) or ip ~every other day, day 1-day 18, 9 times, Total 450 μg)
# [7] = FITC conjugates-II, 1 mouse sc (predominantly) or iv ~every other day, day 4-day 17, 10 times, Total 1M (~1 mg)
# T1 sequence (Q07075 whole entry): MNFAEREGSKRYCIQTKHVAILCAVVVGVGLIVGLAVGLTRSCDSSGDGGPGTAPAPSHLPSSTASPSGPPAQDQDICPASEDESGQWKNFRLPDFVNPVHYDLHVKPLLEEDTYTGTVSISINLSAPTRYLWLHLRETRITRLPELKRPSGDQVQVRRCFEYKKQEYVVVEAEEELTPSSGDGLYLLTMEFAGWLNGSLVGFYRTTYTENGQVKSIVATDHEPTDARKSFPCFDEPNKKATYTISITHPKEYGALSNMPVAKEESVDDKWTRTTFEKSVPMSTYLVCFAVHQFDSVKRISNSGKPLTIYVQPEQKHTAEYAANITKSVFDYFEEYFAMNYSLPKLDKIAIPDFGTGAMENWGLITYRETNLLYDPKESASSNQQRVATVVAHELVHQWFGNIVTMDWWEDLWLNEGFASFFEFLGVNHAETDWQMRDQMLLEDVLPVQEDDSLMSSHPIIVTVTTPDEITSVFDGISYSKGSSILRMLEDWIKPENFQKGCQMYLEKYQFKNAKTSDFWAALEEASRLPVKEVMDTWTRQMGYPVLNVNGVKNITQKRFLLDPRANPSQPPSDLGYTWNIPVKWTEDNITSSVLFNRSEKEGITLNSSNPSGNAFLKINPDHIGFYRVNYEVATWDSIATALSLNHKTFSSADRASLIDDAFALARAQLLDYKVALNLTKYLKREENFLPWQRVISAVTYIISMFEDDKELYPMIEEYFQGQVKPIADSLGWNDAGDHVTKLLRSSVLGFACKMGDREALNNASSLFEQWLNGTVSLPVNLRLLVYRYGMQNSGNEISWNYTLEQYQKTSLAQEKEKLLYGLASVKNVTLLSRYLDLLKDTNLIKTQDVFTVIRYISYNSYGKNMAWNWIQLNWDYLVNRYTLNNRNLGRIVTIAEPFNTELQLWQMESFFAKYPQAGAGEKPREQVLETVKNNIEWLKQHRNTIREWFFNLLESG
compound,measurement,setting,value
CSMMCLEGCDDWC,Round 2 (%),APA (SK-RC-49/APA cells) [1],5%
"COC(=O)C[C@H](NC(=O)[C@H](C)NC(=O)[C@@H](NC(=O)OCc1ccccc1)C(C)C)C(=O)CF [zVAD, reference compound] (Cbz-Val-Ala-Asp(OMe)-CH2F)",inhibition of VISY chimeric peptide-induced apoptosis,HUVEC; caspase inhibitor added at the same time as the VISY chimeric peptide,up to 70%
"YIRPFTL [placenta targeting peptide, phage clone PF]",frequency of phage clone in round III,mouse placenta,2.1%
same,frequency of phage clone in round IV,mouse placenta,5.3%
same,placental homing of phage compared to control fd-tet phage,placenta [2],not substantially enriched in placenta
"PF-FITC: placenta homer PF peptide (YIRPFTL) attached to FITC (also: FITC conjugate, site not given here)",Peptide Effect on Embryo,placenta [3]; [6],"Development delay,; also recorded: toxicity"
same,Pregnancy Outcome,placenta [3]; [6],"21 d, 1 dead pup"
same,Peptide Effect on Embryo,placenta [3]; [7],Pregnancy termination
same,Pregnancy Outcome,placenta [3]; [7],No fetuses inside
"CARAC-FITC: CARAC peptide (SEQ ID NO:46) attached to FITC, non-placental targeting control (cysteine pairing not given here; also: attached to FITC, site not given here) [reference compound]",Peptide Effect on Embryo,placenta [3]; [6],No effect
same,Pregnancy Outcome,placenta [3]; [6],"18 d, 5 normal pups"
same,Peptide Effect on Embryo,placenta [3]; [7],Slight toxicity?
same,Pregnancy Outcome,placenta [3]; [7],"20 d, 5 pups, 1-dead"
RMDGPVR [placenta targeting peptide],frequency of phage clone in round III,mouse placenta,3.1%
same,frequency of phage clone in round IV,mouse placenta,8.5%
"TREVHRS [adipose targeting peptide, fat homing phage clone FE]",homing to adipose tissue compared to control fd-tet phage,adipose tissue,some elevation of homing to adipose tissue
CSGLCTVQCLEGC,Round 2 (%),APA (SK-RC-49/APA cells) [1],5%
CGTGCAVECEVVC,Round 2 (%),APA (SK-RC-49/APA cells) [1],5%
same,enrichment of phage binding on SK-RC-49/APA cells relative to SK-RC-49 parental cells,"APA (SK-RC-49/APA cells) [4]; input 10^9 TU, not shown",no selective binding
GST-PA: PA peptide (TPKTSVT) attached to GST (glutathion S-transferase),Peptide Effect on Embryo,"placenta [3]; GST conjugates-I, 1 mouse sc (predominantly) or iv ~every other day, day 4-day 17, 10 times, Total 800 μg",Pregnancy termination
"LGLRSVG [placenta targeting peptide, phage clone PE]",frequency of phage clone in round III,mouse placenta,< 1%
same,frequency of phage clone in round IV,mouse placenta,5.3%
same,placental homing of phage compared to control fd-tet phage,placenta [2],not substantially enriched in placenta
CYNLCIRECESICGADGACWTWCADGCSRSC,Round 2 (%),APA (SK-RC-49/APA cells) [1],50%
same,Round 3 (%),"APA (SK-RC-49/APA cells) [1]; share of phage inserts, round 3",100%
same,displacement of phage binding by CPRECESIC peptide,APA (SK-RC-49/APA cells) [4]; data not shown,displaced
same,enrichment in tumor xenografts compared to brain tissue,[5],Neither CYNLCIRECESICGADGACWTWCADGCSRSC (SEQ ID NO:125) nor CLGQCASICVNDC (SEQ ID NO:126) phage showed any tumor-homing preference
"TPKTSVT: placenta targeting peptide, tested displayed on phage clone PA",effect on pregnancy,placenta [3],slight effect on pregnancy
same,effect on fetal development,placenta [3],substantially interfered with fetal development
"PA-FITC: placenta homer PA peptide (TPKTSVT) attached to FITC (fluorescein isothiocyanate) (also: FITC conjugate, site not given here)",Peptide Effect on Embryo,placenta [3]; [6],No effect
same,Pregnancy Outcome,placenta [3]; [6],"19 d, 8 normal pups"
same,Peptide Effect on Embryo,placenta [3]; [7],Pregnancy termination
same,Pregnancy Outcome,placenta [3]; [7],No fetuses inside
"RAPGGVR [placenta targeting peptide, phage clone PC]",frequency of phage clone in round III,mouse placenta,< 1%
same,frequency of phage clone in round IV,mouse placenta,8.5%
same,placental homing of phage compared to control fd-tet phage,placenta [2],substantially higher placental localization
TPKTSVT,frequency of phage clone in round III,mouse placenta,7.4%
same,frequency of phage clone in round IV,mouse placenta,8.5%
same,placental homing of phage compared to control fd-tet phage,placenta [2],more than an order of magnitude greater
"VMGSVTG [fat-targeting peptide, fat homing phage clone FX]",homing to adipose tissue compared to control fd-tet phage,adipose tissue,several orders of magnitude higher adipose localization
"RGEVLWS [fat-targeting peptide, fat homing phage clone FC]",homing to adipose tissue compared to control fd-tet phage,adipose tissue,some elevation of homing to adipose tissue
CAVACWADCQLGC,Round 2 (%),APA (SK-RC-49/APA cells) [1],5%
VVISYSMPD,effect on binding of Annexin V to GST-β5,GST-β5 integrin,blocked
same,induction of apoptosis (chromatin fragmentation),"HUVEC; 15 μM, 2-4 hours, FIG. 21",Neither VISY or penetratin alone induced apoptosis
VGLHARA [placenta targeting peptide],frequency of phage clone in round III,mouse placenta,4.2%
same,frequency of phage clone in round IV,mouse placenta,7.4%
"KGGRAKD [fat-targeting peptide, fat homing phage clone FA]",homing to adipose tissue compared to control fd-tet phage,adipose tissue,some elevation of homing to adipose tissue
CPKVCPRECESNC,Round 2 (%),APA (SK-RC-49/APA cells) [1],5%
same,enrichment in tumor xenografts compared to brain tissue,[5],4 fold
"YIRPFTL: placenta targeting peptide, phage clone PF",effect on pregnancy,placenta [3],slight effect on pregnancy
same,effect on fetal development,placenta [3],substantially interfered with fetal development

# Reference: US8710017B2, “Human and mouse targeting peptides identified by phage display” (priority 2000, dated 2014)
